Measured values published in patent US8741951B2, “Non-steroidal compounds for androgen receptor modulation” (CNR—Consiglio Nazionale delle Ricerche, priority 2009, dated 2014).
“Also recorded” adds a separate entry of the source.

System: human CW22-RV1 prostate carcinoma xenograft
Assay: In vivo antitumor activity, CW22-RV1 xenograft s.c. in nude mice
Experimental: CW-22Rv1, a human prostate carcinoma epithelial cell line were purchased from ATCC.
In vivo antitumor activity experiments with the compound (R)-XXIII-6 were carried out using female athymic Swiss nude mice 8 to 10 weeks of age (Charles River, Calco, Italy). Mice were maintained in laminar flow rooms, keeping temperature and humidity constant. Mice had free access to food and water. Experiments were approved by the Ethics Committee for Animal Experimentation of the Istituto Nazionale Tumori (Milan, Italy).
Human CW22-RV1 cells, a human prostate carcinoma epithelial cell line, derived from a xenograft that was serially propagated in mice after castration-induced regression and relapse of the parental, androgen-dependent CWR22 xenograft, were used for in vivo experiments. The prostate carcinoma cell line were inoculated by subcutaneous injection (s.c.) in the right flank of nude mice, at day 0. Treatment started at day 3 when tumor weights were around 60 mg.
The efficacy of the drug treatment was assessed as: (a) TWI % in treated versus control mice, calculated as TWI=100−(mean TW treated/mean TW control×100).
The toxicity of the drug treatment was assessed as: (a) BWL calculated as BWL=100−(mean BWdayx/mean BWday1×100), where day 1 is the first day of treatment and day x is any day after (mice were weighed twice/week throughout the experimental frame and in the table 3 the maximum BWL value was reported); and (b) lethal toxicity, i.e., any death in treated groups occurring before any control death (mice were inspected daily for mortality).

N#Cc1ccc(NC(=O)[C@](O)(Cc2cccs2)CS(=O)(=O)c2ccc(F)cc2)cc1C(F)(F)F [(R)-XXIII-6]
Tox/Tot (deaths in treated mice before any control death) (100 mg/Kg p.o.): 0/6 | day of Max TWI % (day after tumor inoculum) (100 mg/Kg p.o.): 23 days | Max TWI % (100 mg/Kg p.o., (qdx5/wx2w) × 2 cycles): 45% | Max BWL (maximum body weight loss in percentage) (100 mg/Kg p.o., during drug treatment): 2% | tolerability, in words (100 mg/kg p.o.): generally well tolerated, with no signs of acute or delayed toxicity | antitumor activity / tumor weight, in words (100 mg/kg p.o., versus untreated mice): significant reduction in tumor weight; also recorded: effective in slowing tumor growth
